# Reference: patent publication US9820483B2, “Microbial composition” (Rohm and Haas Company, priority 2011, dated 2017)
# Test system: E. coli ATCC #10536
# Assay: Synergy test: high resolution MBC microtiter plate assay in phosphate buffer containing 35% dipropylene glycol, 15 seconds contact
# Assay type: cell-based, Escherichia coli
# Settings: E. coli 10536, complete kill in 15 seconds, phosphate buffer with 35% DPG
# From the text: One measure of synergy is the industrially accepted method described by Kull, F. C.; Eisman. P. C.; Sylwestrowicz, H. D. and Mayer, R. L., in Applied Microbiology 9:538-541 (1961), using the ratio determined by the formula: Qa/QA÷Qb/QB=Synergy Index (“SI”) wherein: QA=concentration of compound A (first component) in percent, acting alone, which produced an end point (MBC of Compound A). […]=concentration of compound A in percent, in the mixture, which produced an end point. QB=concentration of compound B (second component) in percent, acting alone, which produced an end point (MBC of Compound B). Qb=concentration of compound B in percent, in the mixture, which produced an end point.
# When the sum of Qa/QA and Qb/QB is greater than one, antagonism is indicated. […] The lower the SI, the greater is the synergy shown by that particular mixture. The minimum biocidal concentration (MBC) of a microbicide is the lowest concentration tested under a specific set of conditions that provides complete kill of the tested microorganisms.
# Synergy tests were conducted using standard microtiter plate assays with phosphate buffer containing 35% dipropylene glycol (DPG). In this method, a wide range of combinations of chemicals was tested by conducting high resolution MBC assays of Component (A) in the presence of various concentrations of Component (B). High resolution MBCs were determined by adding varying amounts of microbicide to one column of a microtiter plate and doing subsequent ten-fold dilutions using an automated liquid handling system to obtain a series of closely spaced endpoints. The MBC plate was inoculated one column at a time with the test microorganism. An aliquot of the inoculated well was transferred at 15 seconds to a plate containing a neutralizing agent (D/E Neutralizing Broth), mixed and held for 5 minutes before being transferred to a growth plate containing trypticase soy broth (TSB). The TSB plate was incubated at 37° C. and read for the presence/absence of growth at 24 hours. The lowest level tested that provided complete kill (as evidenced by no growth in the microtitre plate) of the test organisms in 15 seconds is the minimum biocidal concentration (MBC).
# The synergy of the combinations of the present invention was determined against a bacterium, Esherichia coli (E. coli—ATCC #10536), at a concentration of approximately 1×10^8 bacteria per mL. This microorganism is representative of natural contaminants in many consumer and industrial applications.
smiles,measurement,value
C=C(C)C1CCC(C)C(O)C1 (stereo not shown) [2-methyl-5-(prop-1-en-2-yl)cyclohexanol],MBC of the component acting alone (QA or QB; Qa or Qb with the other component at 0),0.5 weight %
